Source: patent US6368788B1 (priority 1987, dated 2002)
Marks after values point to notes of the source that are not given here.

Assays:
[1] = test system: respiratory viral infections; experiment: Nose, ear and throat infections (acute respiratory disease); design: species or system human; conditions: in vivo
Method: One hundred eighty six subjects (186) with diagnosed acute respiratory disease, including upper airway diseases and viral infections, were treated with L-Glu-L-Trp. A control group consisted of 87 untreated subjects. L-Glu-L-Trp was administered daily im or intranasally at a dosage of 100 μg on each of 3-7 consecutive days. […] Secondary infectious complications were diminished in the treated individuals, and the length of time that medical follow-up was required was also diminished.

[2] = test system: antibody-producing cells in spleen; experiment: Antibody plaque forming cell response to sheep red blood cells (Jerne); format: in vivo, (CBAxC57B1/6) F1 mice; conditions: for PFC/10^6 splenocytes / PFC/Spleen / Spleen weight/Body weight / Splenocytes per Spleen: s-rbc immunized mice, day 5
[3] = Transfusion reactions; design: species or system human; conditions: in vivo
Method: Seventy-six patients (76) requiring hemotransfusion therapy with allogeneic blood were treated with L-Glu-L-Trp in the post-operative period, starting at day 4-6 post-op. Seventy-two patients (72) in a control group received conventional post-operative treatment. L-Glu-L-Trp treatment was administered as a single daily im dose of 100 μg on each of 5 consecutive days, or alternatively, at a dose of 1 μg/kg delivered on the same schedule by the intranasal route.

[4] = Acute osteomyelitis in adolescents (Protocol D); format: in vivo, human
Method: In 29 adolescents with osteomyelitis, 2 μg/kg L-Glu-L-Trp was administered im daily on each of 3-7 consecutive days, depending upon the severity of the infection. The control group consisted of 13 children who received conventional therapy with antibiotics.

[5] = test system: Staphylococci; experiment: Chronic staphylococcal pyoderma, overview (Protocol A); design: species or system human; conditions: in vivo
Method: The total clinical trial population eventually under examination consisted of 159 patients with pyoderma, including furunculitis, cellulitis, and folliculitis. Trial Protocol A1, below, details some of the results obtained in this trial. Medications were administered either im or intranasally for 5 consecutive days. Peripheral blood immune indices were decreased prior to treatment and following treatment with L-Glu-L-Trp were restored to within the normal range. […] Clinical improvement was correlated with return of the immune parameters to within the normal range of values. In certain patients, L-Glu-L-Trp was also topically applied as a sterile saline solution of medication for a period of 5 to 10 days at a dosage of 1 μg/kg body weight.

[6] = Wound healing; design: species or system human; conditions: in vivo
Method: L-Glu-L-Trp was administered to 37 patients with wounds of various origins, types and localizations. Patients in the control group (24) received conventional treatments. L-Glu-L-Trp was administered daily im (or topically) on each of 10 consecutive days. The im dose was 100 μg.

[7] = test system: peripheral blood leukocytes; experiment: Peripheral blood leukocytes in cortisone suppressed rats; format: in vivo; conditions: for Basophils (% of Normal Control Value) / Basophils: % / Basophils: Total Cells / Eosinophils (% of Normal Control Value) / Eosinophils: % / Eosinophils: Total Cells / Leukocytes (% of Normal Control Value) / Leukocytes: Total Cells / Lymphocytes (% of Normal Control Value) / Lymphocytes: % / Lymphocytes: Total Cells / Monocytes (% of Normal Control Value) / Monocytes: % / Monocytes: Total Cells / Segmented Neutrophils (% of Normal Control Value) / Segmented Neutrophils: % / Segmented Neutrophils: Total Cells / Stab Neutrophils (% of Normal Control Value) / Stab Neutrophils: % / Stab Neutrophils: Total Cells: cortisone suppressed rats, 10 μg/kg im
Method: An immunocompromised state was established over a period of 80 days in experimental rats by administration of cortisone acetate at a dosage of 25 mg/kg twice weekly with tetracycline hydrocholoride po in drinking water. In the experimental group, L-Glu-L-Trp was administered in three treatment courses, each course consisting of 10 daily im injections of 10 μg/kg or 100 μg/kg, and each course of treatment separated from the next course by a 1 month interval. In the control group, saline was administered in the same three treatment course schedule. Differential blood counts were conducted on day 0 (Normal Control), day 59, and day 79 of the study. […] Results obtained with the 10 μg/kg treatment dose (presented in TABLE 73) were not markedly different than those obtained with the 100 μg/kg dose.

[8] = test system: Pseudomonas aeruginosa; experiment: Survival after acute peritonitis with LD100 dose of Pseudomonas aeruginosa; format: in vivo, mice

## L-Glu-L-Trp
[1]
  Clinical outcome: milder course of respiratory viral infections
[2]; 1 μg/kg
  Increase of frequency of PFC per 10^6 splenocytes: 2.8 fold
  Increase of number of PFC in spleen over saline control: 2.7 fold
  PFC/10^6 splenocytes: 69.2 ± 11.3
  PFC/Spleen: 11722 ± 2005
  Spleen weight/Body weight: 0.42 ± 0.01
  Splenocytes per Spleen: 168.6 ± 3.6 ×10^6
[2]; 10 μg/kg
  PFCs per spleen vs saline control: 1.8 fold
  PFC/10^6 splenocytes: 48.8 ± 9
  PFC/Spleen: 7854 ± 1631
  Spleen weight/Body weight: 0.43 ± 0.01
  Splenocytes per Spleen: 159 ± 8.5 ×10^6
[2]; 100 μg/kg
  PFCs per spleen vs saline control: 1.6 fold
  PFC/10^6 splenocytes: 41.7 ± 6
  PFC/Spleen: 6731 ± 1027
  Spleen weight/Body weight: 0.44 ± 0.02
  Splenocytes per Spleen: 162.6 ± 6 ×10^6
[3]
  Clinical outcome: None of L-Glu-L-Trp treated patients showed clinical manifestations of allogeneic hemotransfusion reactions
[4]; 1 of 29
  Failure rate (wounds failed to heal): 3%
[4]; in vivo
  T-cell counts: nearly doubled
  Wounds closed with healing earlier than control group: 2 to 3 days
[4]; on the average
  Fevers resolved sooner: 1 to 2 days
[5]
  Clinical outcome: disappearance of skin manifestations and resolution of pyoderma
[6]
  Clinical outcome: accelerated wound healing
[7]; 10 μg/kg and 100 μg/kg
  Peripheral blood cells vs saline treated controls: increased the number of leukocytes, monocytes, and lymphocytes in the peripheral blood of cortisone-suppressed rats
[7]; Day 59
  Basophils (% of Normal Control Value): (71%)
  Basophils: %: 0.4 ± 0.2%
  Basophils: Total Cells: 0.05 ± 0.03 × 10^3/mg
  Eosinophils (% of Normal Control Value): (150%)
  Eosinophils: %: 4.3 ± 0.4 %
  Eosinophils: Total Cells: 0.6 ± 0.1 × 10^9/L
  Leukocytes (% of Normal Control Value): (75%)
  Leukocytes: Total Cells: 12.4 ± 1.8 × 10^9/L
  Lymphocytes (% of Normal Control Value): (11%)
  Lymphocytes: %: 57 ± 1.5 %
  Lymphocytes: Total Cells: 7 ± 1 × 10^9/L
  Monocytes (% of Normal Control Value): (128%)
  Monocytes: %: 7 ± 0.9 %
  Monocytes: Total Cells: 0.92 ± 0.2 × 10^9/L
  Segmented Neutrophils (% of Normal Control Value): (73%)
  Segmented Neutrophils: %: 26.7 ± 1 %
  Segmented Neutrophils: Total Cells: 3.3 ± 0.4 × 10^9/L
  Stab Neutrophils (% of Normal Control Value): (100%)
  Stab Neutrophils: %: 4.7 ± 0.6%
  Stab Neutrophils: Total Cells: 0.6 ± 0.1 × 10^9/L
[7]; Day 79
  Basophils (% of Normal Control Value): (29%)
  Basophils: %: 0.3 ± 0.2%
  Basophils: Total Cells: 0.02 ± 0.02 × 10^3/mg
  Eosinophils (% of Normal Control Value): (75%)
  Eosinophils: %: 4 ± 0.9%
  Eosinophils: Total Cells: 0.3 ± 0.1 × 10^9/L
  Leukocytes (% of Normal Control Value): (49%)
  Leukocytes: Total Cells: 8.06 ± 0.9 × 10^9/L
  Lymphocytes (% of Normal Control Value): (7.7%)
  Lymphocytes: %: 59 ± 2 %
  Lymphocytes: Total Cells: 4.7 ± 1 × 10^9/L
  Monocytes (% of Normal Control Value): (100%)
  Monocytes: %: 8 ± 0.8 %
  Monocytes: Total Cells: 0.7 ± 0.1 × 10^9/L
  Segmented Neutrophils (% of Normal Control Value): (44%)
  Segmented Neutrophils: %: 24.6 ± 1.3 %
  Segmented Neutrophils: Total Cells: 2 ± 2 × 10^9/L
  Stab Neutrophils (% of Normal Control Value): (58%)
  Stab Neutrophils: %: 4.4 ± 0.7 %
  Stab Neutrophils: Total Cells: 0.35 ± 0.1 × 10^9/L
[8]; 24 hours after injection, Glu-Trp dose 10 μg/kg (alone or + Gentamycin 1 MED)
  Percentage Survivors: 55.6* %
[8]; 24 hours after injection, Glu-Trp dose 100 μg/kg (alone or + Gentamycin 1 MED)
  Percentage Survivors: 66.7*† %
[8]; 24 hours after injection, Glu-Trp dose 1000 μg/kg (alone or + Gentamycin 1 MED)
  Percentage Survivors: 77.8*† %
[8]; 48 hours after injection, Glu-Trp dose 10 μg/kg (alone or + Gentamycin 1 MED)
  Percentage Survivors: 5.6%
[8]; 48 hours after injection, Glu-Trp dose 100 μg/kg (alone or + Gentamycin 1 MED)
  Percentage Survivors: 38.9* %
[8]; 48 hours after injection, Glu-Trp dose 1000 μg/kg (alone or + Gentamycin 1 MED)
  Percentage Survivors: 44.4* %
[8]; 96 hours after injection, Glu-Trp dose 10 μg/kg (alone or + Gentamycin 1 MED)
  Percentage Survivors: 5.6%
[8]; 96 hours after injection, Glu-Trp dose 100 μg/kg (alone or + Gentamycin 1 MED)
  Percentage Survivors: 38.9%
[8]; 96 hours after injection, Glu-Trp dose 1000 μg/kg (alone or + Gentamycin 1 MED)
  Percentage Survivors: 44.4* %
[8]; alone or with Gentamycin
  Survival: significantly increased the percentage of mice surviving a lethal challenge of Pseudomonas
